Data reported in patent publication US20080027008A1, “Antitumorigenic Drug Combination” (priority 2006, published 2008).

Test system: Dogs with Lymphoma
Experiment: Efficacy Study for Treatment of Dogs with Lymphoma
Assay type: in vivo
Settings: treatment received population of dogs
Method: Twenty-five (25) dogs of varying sex, weight, breed and age (5.5-14.0 yrs) were entered for the study. […] All dogs entered for study had received prior chemotherapy and enrolled to the study following disease relapse.
All dogs were treated with N-[2-[(4-HYDROXYPHENYL)AMINO]-3-PYRIDYL]-4-METHOXYBENZENESULFONAMIDE at an initial dose of 350 mg/m2 PO QD for 7 days then treated at 350 mg/m2 EOD×21 days. If no significant objective response or doselimiting toxicities were noted after 28 days on therapy, a QD regimen was restarted for 7 days. Otherwise, dogs continued on EOD dosing until study discontinuation.
All dogs were treated with ABT-510 at a dose of 1 mg/kg SQ divided BID starting 24 hours after the first dose of N-[2-[(4-HYDROXYPHENYL)AMINO]-3-PYRIDYL]-4-METHOXYBENZENESULFONAMIDE was administered.
Dogs treated with N-[2-[(4-HYDROXYPHENYL)AMINO]-3-PYRIDYL]-4-METHOXYBENZENESULFONAMIDE and ABT-510 therapy were evaluated at Day 0, Day 7, Day 28 then every 28 days thereafter. Assessment of tumor burden was made based on measurement of target lymph nodes (no more than 3 nodes/animal). The lymph node volume (I×w×h) was calculated for each target lymph node and assessed as a sum of total tumor burden. Standard response endpoints were evaluated based on the criteria below: • Complete response (CR) is defined as disappearance of all clinical evidence of cancer and of any signs related to the cancer. • Partial response (PR) is defined as a 50% or greater decrease in the sum of the products of measurements for representative lesions, without an increase in size of any lesions or appearance of any new lesions. • Minimal response (MR) is defined as a 25% or greater decrease in the sum of the products of measurements for representative lesions, without an increase in size of any lesions or appearance of any new lesions. • Stable disease is defined as no response or a response of less than that defined for partial response or progressive disease without appearance of any new lesions or worsening of clinical signs. • Progressive disease is defined as an unequivocal increase of at least 50% in the size of any measurable lesion or appearance of new lesions.
The Intent-to-Treat population included all 25 dogs enrolled in the study. Five (5) dogs withdrew from the study early due to their inability to receive N-[2-[(4-HYDROXYPHENYL)AMINO]-3-PYRIDYL]-4-METHOXYBENZENESULFONAMIDE and ABT-510 longer than 7 days. Four (4) of these dogs withdrew due to rapid lymphoma progression. One (1) dog withdrew due to owner decision related to side effects while receiving study agents.
The Treatment Received population included dogs who received N-[2-[(4-HYDROXYPHENYL)AMINO]-3-PYRIDYL]-4-METHOXYBENZENESULFONAMIDE and ABT-510 therapy for longer than 7 days. […]

Compound: COc1ccc(S(=O)(=O)Nc2cccnc2Nc2ccc(O)cc2)cc1 [Single Agent, N-[2-[(4-HYDROXYPHENYL)AMINO]-3-PYRIDYL]-4-METHOXYBENZENESULFONAMIDE]
- Response Duration, Mean (mean): Mean = 65 days
- Time to Progression, Mean (mean): Mean = 21 days
- Response Duration, Median (median): Median = 24 days
- Time to Progression, Median (median): Median = 18 days
